Results from the supplement of paper PMC10627819.

How the values were obtained:
S. aureus DSM 20231 [1] = assay: fitness (endpoint OD595 vs no drug) (fraction); higher = more growth
How it was run: (§1)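 Each well of a 384-well plate received 30 µl of culture at OD595 0.01, or 55 µl for S. pneumoniae. TSB, LB Lennox or CY served as media at 37 °C. OD595 was taken every 30 min for 14 h and corrected by subtracting the first reading. Fitness is the optical density at stationary-phase entry divided by the robust mean of no-drug controls, capped at 1.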

S. pneumoniae D39V [2] = assay: as above
How it was run: as §1

S. aureus Newman [3] = assay: as above
How it was run: as §1

B. subtilis 168 [4] = assay: as above
How it was run: as §1

S. aureus DSM 20231 [5] = assay: Bliss interaction score (quartile over a dose matrix) (fitness difference); higher = more antagonism (negative = synergy)
How it was run: (§2)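 At entry into stationary phase, OD595 was recorded and divided by the robust mean of the no-drug wells on that plate, with any value above 1 set to 1. This gives the fitness measure used throughout. Single-drug fitness was inferred from combination data, and the Bliss score, observed minus product-expected fitness, is shown as quartiles across technical, biological and donor/recipient replicates.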

S. pneumoniae D39V [6] = assay: as above
How it was run: as §2

S. aureus Newman [7] = assay: as above
How it was run: as §2

B. subtilis 168 [8] = assay: as above
How it was run: as §2
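For Bliss interaction score (quartile over a dose matrix) in this document: first quartile when negative (synergy) and third quartile when positive (antagonism).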

COc1c(N2C[C@@H]3CCCN[C@@H]3C2)c(F)cc2c(=O)c(C(=O)O)cn(C3CC3)c12 [Moxifloxacin] + CC1=C\[C@@H](O)CC(=O)Cc2nc(co2)C(=O)N2CCC=C2C(=O)O[C@H](C(C)C)[C@H](C)/C=C/C(=O)NC\C=C\1 [Virginiamycin M1]
Conditions	fitness
B. subtilis 168 [4], first compound 0.0312 µg/mL, partner 0.0625 µg/mL	0.0441
B. subtilis 168 [4], first compound 0.0312 µg/mL, partner 0.125 µg/mL	0.0556
B. subtilis 168 [4], first compound 0.0312 µg/mL, partner 0.25 µg/mL	0.0499
B. subtilis 168 [4], first compound 0.0625 µg/mL, partner 0.0625 µg/mL	0.0365
B. subtilis 168 [4], first compound 0.0625 µg/mL, partner 0.125 µg/mL	0.0573
B. subtilis 168 [4], first compound 0.0625 µg/mL, partner 0.25 µg/mL	0.0434
B. subtilis 168 [4], first compound 0.125 µg/mL, partner 0.0625 µg/mL	0.044
B. subtilis 168 [4], first compound 0.125 µg/mL, partner 0.125 µg/mL	0.0517
B. subtilis 168 [4], first compound 0.125 µg/mL, partner 0.25 µg/mL	0.0468
B. subtilis 168 [4], first compound 2 µg/mL, partner 0.0625 µg/mL	0.0224
B. subtilis 168 [4], first compound 2 µg/mL, partner 0.125 µg/mL	0.0234
B. subtilis 168 [4], first compound 2 µg/mL, partner 0.25 µg/mL	0.0324
B. subtilis 168 [4], first compound 4 µg/mL, partner 0.0625 µg/mL	0.0209
B. subtilis 168 [4], first compound 4 µg/mL, partner 0.125 µg/mL	0.0242
B. subtilis 168 [4], first compound 4 µg/mL, partner 0.25 µg/mL	0.0192
B. subtilis 168 [4], first compound 8 µg/mL, partner 0.0625 µg/mL	0.0121
B. subtilis 168 [4], first compound 8 µg/mL, partner 0.125 µg/mL	0.0128
B. subtilis 168 [4], first compound 8 µg/mL, partner 0.25 µg/mL	0.0206
S. aureus DSM 20231 [1], first compound 0.0075 µg/mL, partner 0.0625 µg/mL	0.812
S. aureus DSM 20231 [1], first compound 0.0075 µg/mL, partner 0.125 µg/mL	0.901
S. aureus DSM 20231 [1], first compound 0.0075 µg/mL, partner 0.25 µg/mL	0.81
S. aureus DSM 20231 [1], first compound 0.015 µg/mL, partner 0.0625 µg/mL	0.702
S. aureus DSM 20231 [1], first compound 0.015 µg/mL, partner 0.125 µg/mL	0.72
S. aureus DSM 20231 [1], first compound 0.015 µg/mL, partner 0.25 µg/mL	0.776
S. aureus DSM 20231 [1], first compound 0.03 µg/mL, partner 0.0625 µg/mL	0.609
S. aureus DSM 20231 [1], first compound 0.03 µg/mL, partner 0.125 µg/mL	0.67
S. aureus DSM 20231 [1], first compound 0.03 µg/mL, partner 0.25 µg/mL	0.662
S. aureus Newman [3], first compound 0.0075 µg/mL, partner 0.0625 µg/mL	0.764
S. aureus Newman [3], first compound 0.0075 µg/mL, partner 0.125 µg/mL	0.762
S. aureus Newman [3], first compound 0.0075 µg/mL, partner 0.25 µg/mL	0.795
S. aureus Newman [3], first compound 0.015 µg/mL, partner 0.0625 µg/mL	0.545
S. aureus Newman [3], first compound 0.015 µg/mL, partner 0.125 µg/mL	0.556
S. aureus Newman [3], first compound 0.015 µg/mL, partner 0.25 µg/mL	0.517
S. aureus Newman [3], first compound 0.03 µg/mL, partner 0.0625 µg/mL	0.0697
S. aureus Newman [3], first compound 0.03 µg/mL, partner 0.125 µg/mL	0.0796
S. aureus Newman [3], first compound 0.03 µg/mL, partner 0.25 µg/mL	0.0787
S. pneumoniae D39V [2], first compound 0.0037 µg/mL, partner 2 µg/mL	0.802
S. pneumoniae D39V [2], first compound 0.005 µg/mL, partner 0.5 µg/mL	0.999
S. pneumoniae D39V [2], first compound 0.005 µg/mL, partner 1 µg/mL	≥ 1
S. pneumoniae D39V [2], first compound 0.005 µg/mL, partner 2 µg/mL	0.99
S. pneumoniae D39V [2], first compound 0.0075 µg/mL, partner 2 µg/mL	0.869
S. pneumoniae D39V [2], first compound 0.01 µg/mL, partner 0.5 µg/mL	≥ 1
S. pneumoniae D39V [2], first compound 0.01 µg/mL, partner 1 µg/mL	0.992
S. pneumoniae D39V [2], first compound 0.01 µg/mL, partner 2 µg/mL	0.979
S. pneumoniae D39V [2], first compound 0.015 µg/mL, partner 2 µg/mL	0.811
S. pneumoniae D39V [2], first compound 0.02 µg/mL, partner 0.5 µg/mL	0.981
S. pneumoniae D39V [2], first compound 0.02 µg/mL, partner 1 µg/mL	0.995
S. pneumoniae D39V [2], first compound 0.02 µg/mL, partner 2 µg/mL	0.963

one replicate
Conditions	fitness
S. aureus DSM 20231 [1], first compound 0.0075 µg/mL, partner 0.5 µg/mL	0.785
S. aureus DSM 20231 [1], first compound 0.0075 µg/mL, partner 1 µg/mL	0.81
S. aureus DSM 20231 [1], first compound 0.015 µg/mL, partner 0.5 µg/mL	0.787
S. aureus DSM 20231 [1], first compound 0.015 µg/mL, partner 1 µg/mL	0.793
S. aureus DSM 20231 [1], first compound 0.03 µg/mL, partner 0.5 µg/mL	0.693
S. aureus DSM 20231 [1], first compound 0.03 µg/mL, partner 1 µg/mL	0.734
S. aureus DSM 20231 [1], first compound 0.06 µg/mL, partner 0.0625 µg/mL	0.686
S. aureus DSM 20231 [1], first compound 0.06 µg/mL, partner 0.125 µg/mL	0.695
S. aureus DSM 20231 [1], first compound 0.06 µg/mL, partner 0.25 µg/mL	0.69
S. aureus DSM 20231 [1], first compound 0.12 µg/mL, partner 0.0625 µg/mL	0.462
S. aureus DSM 20231 [1], first compound 0.12 µg/mL, partner 0.125 µg/mL	0.471
S. aureus DSM 20231 [1], first compound 0.12 µg/mL, partner 0.25 µg/mL	0.46
S. aureus Newman [3], first compound 0.0075 µg/mL, partner 0.5 µg/mL	0.659
S. aureus Newman [3], first compound 0.0075 µg/mL, partner 1 µg/mL	0.758
S. aureus Newman [3], first compound 0.0075 µg/mL, partner 2 µg/mL	0.665
S. aureus Newman [3], first compound 0.015 µg/mL, partner 0.5 µg/mL	0.654
S. aureus Newman [3], first compound 0.015 µg/mL, partner 1 µg/mL	0.643
S. aureus Newman [3], first compound 0.015 µg/mL, partner 2 µg/mL	0.579
S. aureus Newman [3], first compound 0.03 µg/mL, partner 0.5 µg/mL	0.465
S. aureus Newman [3], first compound 0.03 µg/mL, partner 1 µg/mL	0.414
S. aureus Newman [3], first compound 0.03 µg/mL, partner 2 µg/mL	0.323
S. pneumoniae D39V [2], first compound 0.0037 µg/mL, partner 0.15 µg/mL	0.808
S. pneumoniae D39V [2], first compound 0.0037 µg/mL, partner 0.3 µg/mL	0.758
S. pneumoniae D39V [2], first compound 0.0037 µg/mL, partner 0.5 µg/mL	0.97
S. pneumoniae D39V [2], first compound 0.0037 µg/mL, partner 1 µg/mL	0.95
S. pneumoniae D39V [2], first compound 0.0075 µg/mL, partner 0.15 µg/mL	0.911
S. pneumoniae D39V [2], first compound 0.0075 µg/mL, partner 0.3 µg/mL	0.877
S. pneumoniae D39V [2], first compound 0.0075 µg/mL, partner 0.5 µg/mL	0.965
S. pneumoniae D39V [2], first compound 0.0075 µg/mL, partner 1 µg/mL	0.934
S. pneumoniae D39V [2], first compound 0.015 µg/mL, partner 0.15 µg/mL	0.832
S. pneumoniae D39V [2], first compound 0.015 µg/mL, partner 0.3 µg/mL	0.843
S. pneumoniae D39V [2], first compound 0.015 µg/mL, partner 0.5 µg/mL	0.933
S. pneumoniae D39V [2], first compound 0.015 µg/mL, partner 1 µg/mL	0.873

Conditions	Bliss interaction score
B. subtilis 168 [8]	-0.0191
S. aureus DSM 20231 [5]	-0.0567
S. aureus Newman [7]	-0.0536
S. pneumoniae D39V [6]	0.065
